Data set [1] is described as follows: In vivo rat pharmacokinetics. As to conditions: Wister Han rats. As to the method:
In Vivo Rat Pharmacokinetics Experiments
In vivo Wister Han rat pharmacokinetic experiments of compound Comparator C and Example 4 were assessed as follows.
Compound Comparator C was dosed as a 100 mg/kg suspension to Wister Han rats (N=3) using the following formulation:30% captisol, 5% soluplus, 65% pH 2 water. Compound 1170997 was dosed separately as a 100 mg-eq/kg (123 mg/kg) solution to Wister Han rats (N=3) using the following formulation: 0.5% Methocel E4M Premium, 0.1% Tween-80, 99.4% Water. Samples were assessed for the presence of Comparator C.
Comparator C and Example 4. […] As is shown in Table 4, the AUC 0-24 h measured for Comparator C in plasma was higher after dosing with Example 4 than the value measured after dosing with an equivalent dose of Comparator C.

Data set [2] can be described thus: Thermodynamic solubility in FaSSIF and FeSSIF. It counts as physicochemical. Conditions: 20 hours, ambient temperature. As to the method:
Thermodynamic Solubility in FASSIF and FESSIF.
The aqueous solubility of compounds over a time of 20 hours was assessed. Solubility was determined at ambient temperature in buffered fasted-state simulated intestinal fluid (FaSSIF, pH 6.5) and buffered fed-state simulated intestinal fluid (FeSSIF, pH 5.0) prepared in-house using BioRelevant Simulated Intestinal Fluid (SIF) powder. Solids were added to FaSSIF or FeSSIF in 1.5-mL Eppendorf tubes, vortexed for 1 minute, then agitated for 20 hours in an Eppendorf ThermoMixer C. To determine concentration in solution, the suspensions were centrifuged for 10 min at 14,800 rpm and supernatants were diluted to a volume of 1 mL with 1:1 v/v acetonitrile:water. All diluted supernatants were analyzed by UPLC using a Waters Acquity UPLC with a PDA UV detector.

Data set [3] can be described thus: Kinetic solubility at pH 1 and 7. It is filed as physicochemical. Conditions: 23 °C, kinetic from dmso stock, 1.0% DMSO. As to the method: Kinetic Solubility at pH 1 and 7
100-fold dilutions of each compound as DMSO stock solution were prepared by combining 3 μL of DMSO stock with 297 μL of the appropriate media in a Millipore solubility filter plate with 0.45 μM polycarbonate filter membrane using Hamilton Starlet liquid handling. The final DMSO Concentration is 1.0% and maximum theoretical compound concentration is […] (assuming stock concentration of 10 mM). The filter plate was sealed. Following 24-hour incubation at ambient temperature (22.2-23.6° C.), the samples were vacuum filtered, and the filtrates were collected in a 96 well polypropylene plate for analysis. The collection plate was sealed for analysis. Filtrates were injected into the nitrogen detector for quantification. The equimolar nitrogen response of the detector is calibrated using standards which span the dynamic range of the instrument from 0.08 to 4500 μg/ml nitrogen. The filtrates were quantified with respect to this calibration curve. The calculated solubility values are corrected for background nitrogen present in the DMSO, and the media used to prepare the samples

Data set [4] addresses T1, alkaline phosphatase (intestinal) (Bos taurus, UniProt P19111).
T1 construct: purchased MilliPore Sigma
The data set is described as follows: Alkaline phosphatase stability assay. It is filed as in vitro ADME. Conditions: 2 μM substrate, 100 ng/mL purified Bovine intestinal alkaline phosphatase, Tris buffer pH 7.8; read-out: ALP half life. As to the method: Alkaline Phosphatase Stability Assay
(§1) Alkaline phosphatase stability assays were carried out using purified Bovine intestinal alkaline phosphatase. Duplicate sets were performed with a TECAN liquid handler. Assay substrate concentrations were 2 μM. Purified Bovine intestinal alkaline phosphatase was acquired through MilliPore Sigma as a lyophilized powder. Reaction mixtures were prepared by the addition of 2 μL compound (400 μM stock solution in DMSO) into wells of a 96-well plate containing […] Tris buffer (100 mM, pH 7.8, 1 mM MgCl2 and 1 mM ZnCl2) with and without 100 ng/mL purified Bovine intestinal alkaline phosphatase. Samples were assessed at time points of 3, 30, 60, 120, 180 and 240 minutes. At each time point, 25 μL of the reaction mixtures were added into a 96-well plate containing 225 μL of quench solution (99% Acetonitrile with 1% Formic Acid and 100 nM Labetalol as internal standard). The plates containing the quench samples were then vortexed at 1100 RPM for 10 minutes and centrifuged at 4500 RPM for 20 minutes. 150 μL of the resulting supernatant was transferred into a 96-well plate containing 150 μL of water and vortexed at 1100 RPM for 3 minutes to mix.
(§2) Samples were analyzed with a Leap HTC Autosampler and a Dionex UltiMate 3000 HPLC system interfaced to a Thermo Q-Exactive mass spectrometer operating in positive ion electrospray mode. A Thermo Scientific Hypersil GOLD (1.9 μM particle size, 50×2.1 mm) HPLC column was used and mobile phase was pumped at 0.5 mL/min. Elution of analytes was achieved by a series of linear gradients of acetonitrile in water containing 0.1% (v/v) formic acid. Quantification was by analyte/internal standard peak area ratio (PAR).

Data set [5] can be described thus: Assay buffer stability (Tris buffer without alkaline phosphatase). It counts as physicochemical. As to conditions: 2 μM substrate, Tris buffer pH 7.8 without alkaline phosphatase. As to the method:
as §1, §2

Where a name gives a salt, the structure may show the parent alone. Read-outs that look alike come from different tables or passages of the source. Bounds are passed on as bounds.

T1 sequence (P19111 20-506 limits assumed): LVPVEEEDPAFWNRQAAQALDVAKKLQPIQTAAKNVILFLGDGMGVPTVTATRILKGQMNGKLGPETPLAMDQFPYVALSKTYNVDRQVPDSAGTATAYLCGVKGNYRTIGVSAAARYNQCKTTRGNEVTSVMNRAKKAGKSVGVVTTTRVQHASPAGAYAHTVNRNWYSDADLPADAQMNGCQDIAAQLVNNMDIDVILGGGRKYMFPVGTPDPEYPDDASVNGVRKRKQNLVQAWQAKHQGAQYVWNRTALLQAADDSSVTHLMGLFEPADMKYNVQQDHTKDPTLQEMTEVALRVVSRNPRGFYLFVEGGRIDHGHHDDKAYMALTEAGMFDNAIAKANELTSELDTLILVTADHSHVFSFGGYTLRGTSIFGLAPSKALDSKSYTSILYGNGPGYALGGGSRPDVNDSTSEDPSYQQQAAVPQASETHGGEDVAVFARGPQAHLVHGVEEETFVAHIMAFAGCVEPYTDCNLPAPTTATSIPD

As to `O=c1[nH]cc(-c2cc([C@H]3C[C@@H]3c3ccc4cnn(CC(F)(F)F)c4c3)c3ncc(F)n3n2)c(=O)[nH]1` [Comparator C HCl salt, reference compound], the AUC(0-t) in data set [1] (rat, 100 mg/kg suspension, Comparator C measured in plasma, read-out: Comparator C AUC 0-24 h) was 11.2 µM·h.
As to `O=c1[nH]c(=O)n(COP(=O)(O)O)cc1-c1cc([C@H]2C[C@@H]2c2ccc3cnn(CC(F)(F)F)c3c2)c2ncc(F)n2n1` [Example 4, (5-(3-fluoro-8-((1S,2S)-2-(1-(2,2,2-trifluoroethyl)-1H-indazol-6-yl)cyclopropyl)imidazo[1,2-b]pyridazin-6-yl)-2,4-dioxo-3,4-dihydropyrimidin-1(2H)-yl)methyl dihydrogen phosphate], the “FaSSIF (pH 6.5)” value in data set [2] (fasted-state simulated intestinal fluid pH 6.5) is reported as 1100 ug/mL. The “FeSSIF (pH 5.0)” value in data set [2] (fed-state simulated intestinal fluid pH 5.0) was above 5400 ug/mL. Further, the solubility (kinetic) – broadly, solubility judged after dilution from a stock solution rather than from solid – at 24 h in data set [3] (aqueous buffer, pH 7, 24-hour incubation at ambient temperature, read-out: Kinetic Solubility pH 7) is above 100 µM; in data set [3] (simulated gastric fluid, pH 1, 24-hour incubation at ambient temperature, read-out: Kinetic Solubility pH 1) it was 96 µM. The results for the half-life at 2 µM in data set [4] and in data set [5] were 4 min and above 1580 min, respectively. In data set [1] (100 mg-eq/kg), the “AUC 0-24 h measured for Comparator C in plasma, compared with dosing an equivalent dose of Comparator C” value is “higher”.

The values above are taken from US11919869B2, “CD73 compounds” (Gilead Sciences, Inc., priority 2021, dated 2024).
